Results published in PubChem BioAssay AID1918999 (Molecular Pharmacology Branch, DTP, NCI, 2023).
Where “and” joins values, the source holds several entries; their conditions need not be identical. Equal entries are not always repeated. Each block holds one molecule with its values, some of them ahead of it.

System: 556581-035-R-J1-PDC complex spheroid growth
Test: Anticancer human tumor 556581-035-R-J1-PDC patient-derived ovarian carcinoma cell line growth inhibition [AhR]
Conditions: for viability, T/C: stronger effect = lower value
Text: Multicellular complex tumor spheroid response to aryl hydrocarbon receptor antagonists in combination with a variety of drugs and investigational agents in selected tumor cell lines
The current study was undertaken to assess response to aryl hydrocarbon receptor antagonists in combination with standard-of-care drugs and investigational agents in solid tumor complex spheroid models. Complex spheroids include a stromal component modeled by human endothelial cells (HUVEC) and fibroblasts modeled by human mesenchymal stem cells (MSCs). The concentration ranges selected for each drug and investigational agent were based upon clinically achievable concentrations if the clinical Cmax of the agent was known.
Compounds. The drugs and investigational agents: BAY 2416964 (NSC825713), GNF351 (NSC835774), CH-223191 (NSC835775), CPI-455 (NSC825282), aza-TdCyd (NSC777586), decitabine (NSC127716), belinostat (NSC758774), entinostat (NSC756642), pevonedistat (NSC761192), tazemetostat (NSC777109), talazoparib (NSC765396), olaparib (NSC753686), selinexor (NSC780203), nedisertib (M3814, NSC802822), bortezomib (NSC756655), venetoclax (NSC766270), doxorubicin (NSC123127), elimusertib (BAY189344, NSC800525), ceralasertib (AZD6738, NSC777638), TAK-243 (NSC785004), alisertib (NSC759677), etoposide (NSC141540), topotecan (NSC609699), eribulin (NSC707389), gemcitabine (NSC613327), carboplatin (NSC241240), cisplatin (NSC119875), and SN-38 (NSC673596) were obtained from the National Cancer Institute (NCI) Developmental Therapeutics Program Chemical Repository (32). The FDA-approved anticancer drug set is available from the Developmental Therapeutics Program at https://dtp.cancer.gov/organization/dscb/obtaining/available plates.htm. […] The stock solutions were prepared in dimethyl sulfoxide (DMSO, Sigma-Aldrich, St. Louis, MO, cat. D2650), except for the platinum compounds which were prepared in saline (Quality Biological, Gaithersburg, MD, cat. 114-055-101), at 800-fold the tested concentration and stored at -70 degrees C prior to their use. All drugs and investigational agents were tested over a range starting from a high concentration at or near the clinical Cmax and decreasing in half-log increments. If the clinical Cmax for an agent had not been determined, the highest concentration tested was 10 microM (Table 1).
Cell Culture. All cells were maintained in an incubator at 37 degrees C and 5% CO2 with 95% humidity. The PDC lines were cultured according to standard operating procedures established by the NCI PDMR (https://pdmr.cancer.gov). Briefly, all PDCs were thawed and cultured in Matrigel-coated flasks prepared with a working solution of 1X Ham's F-12 nutrient mix, without supplementation (Invitrogen, Waltham, MA, cat. 11765054), 100 U/mL penicillin-streptomycin (Invitrogen, cat. 15140122), and 2.5% Matrigel (Corning Inc., Corning, NY, cat. 354248) for the first three passages. All PDCs were cultured in complete DMEM/F-12 media containing advanced DMEM/F-12 (Invitrogen, cat. 12634028), 4.9% defined fetal bovine serum, heat inactivated (HyClone Laboratories Inc., Logan, UT, cat. SH30070.03HI), 389 ng/mL hydrocortisone (Sigma-Aldrich, cat. H4001), 9.7 ng/mL human EGF recombinant protein (Invitrogen, cat. PHG0313), 23.4 microg/mL adenine (Sigma-Aldrich, cat. A2786), 97.3 U/mL penicillin-streptomycin (Invitrogen, cat. 15140122), 1.9 mM L-glutamine (Invitrogen, cat. 25030081), and 9.7 microM Y-27632 dihydrochloride (Tocris Bioscience, Bristol, United Kingdom, cat. 1254). The PDCs were cultured in complete DMEM/F12 media without 10 microM Y-27632 dihydrochloride for at least two passages prior to the screen. The established cell lines NCI-H1341 and […] were cultured in DMEM/F-12, HEPES (Invitrogen, cat. 11330032), 5% defined fetal bovine serum (HyClone Laboratories Inc., cat. SH30070.03), ITS premix universal culture supplement [insulin (5 microg/mL), transferrin (5 microg/mL), and selenious acid (5 ng/mL)] […]
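Wherever viability, T/C is given: compound exposure lasted 7 days; 100% = DMSO vehicle control growth.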

IC50 (curve of compound): > 10 µM
SMILES: CC(C)c1c(-c2ccccc2)nc2c(C#N)c[nH]n2c1=O
viability, T/C (compound 0.0316 µM): 102% and 99.4% and 99.2%
viability, T/C (compound 0.1 µM): 105% and 102% and 98.3%
viability, T/C (compound 0.316 µM): 92.7% and 106% and 104%
viability, T/C (compound 1 µM): 101% and 106% and 99%
viability, T/C (compound 3.16 µM): 95.7% and 110% and 93.8%
viability, T/C (compound 10 µM): 86.8% and 94.4% and 83.1%

IC50 (compound alone, run of 05/31/2022): > 10 µM
SMILES: CC(CO)NC(=O)c1cc(-c2ccc(Cl)cc2)nn(-c2cnn(C)c2)c1=O (stereo unspecified)
viability, T/C (compound 0.1 µM): 98.9% [middle of 20 runs]

IC50 (curve of compound): > 10 µM
SMILES: CC1(C)CCC(CN2CCN(c3ccc(C(=O)NS(=O)(=O)c4ccc(NCC5CCOCC5)c([N+](=O)[O-])c4)c(Oc4cnc5[nH]ccc5c4)c3)CC2)=C(c2ccc(Cl)cc2)C1
viability, T/C (compound 0.0316 µM): 98.3% and 100% and 107%
viability, T/C (compound 0.1 µM): 102% and 104% and 108%
viability, T/C (compound 0.316 µM): 88.4% and 106% and 96.5%
viability, T/C (compound 1 µM): 90.5% (2×) and 107%
viability, T/C (compound 3.16 µM): 97.1% and 101% and 97.2%
viability, T/C (compound 10 µM): 75% and 79.2% and 73.8%

IC50 (curve of compound): > 10 µM
SMILES: CC1COCCN1c1cc(C2(S(C)(=N)=O)CC2)nc(-c2ccnc3[nH]ccc23)n1 (stereo unspecified)
viability, T/C (compound 0.0316 µM): 104% and 101% and 99.6%
viability, T/C (compound 0.1 µM): 103% and 105% and 107%
viability, T/C (compound 0.316 µM): 96.5% and 102% and 92.8%
viability, T/C (compound 1 µM): 86.3% and 92.2% and 88.4%
viability, T/C (compound 3.16 µM): 84.8% (2×) and 74.1%
viability, T/C (compound 10 µM): 59.5% and 60.3% and 57.7%

IC50 (curve of compound): > 10 µM
SMILES: COc1cc(Nc2ncc3c(n2)-c2ccc(Cl)cc2C(c2c(F)cccc2OC)=NC3)ccc1C(=O)O
viability, T/C (compound 0.0316 µM): 81.1% and 79.8% and 91.3%
viability, T/C (compound 0.1 µM): 75% and 75.9% and 76%
viability, T/C (compound 0.316 µM): 68.9% and 62.2% and 64.4%
viability, T/C (compound 1 µM): 79.5% and 64.8% and 63%
viability, T/C (compound 3.16 µM): 62.2% and 61.8% and 58.2%
viability, T/C (compound 10 µM): 54% and 52% and 52.1%

IC50 (curve of compound): 6.68 µM and 4.7 µM and 3.46 µM
SMILES: COc1ccc([C@@H](O)c2cc(-c3ncnc4cc(N5CCOCC5)ccc34)c(F)cc2Cl)nn1
viability, T/C (compound 0.0316 µM): 96.5% and 101% and 108%
viability, T/C (compound 0.1 µM): 106% and 98.1% and 104%
viability, T/C (compound 0.316 µM): 88.7% and 93.8% and 94.7%
viability, T/C (compound 1 µM): 76.4% and 70% and 71.3%
viability, T/C (compound 3.16 µM): 58.4% and 59.2% and 52.1%
viability, T/C (compound 10 µM): 45.5% and 37.5% and 38.9%

IC50 (compound alone, run of 06/14/2022): > 10 µM
SMILES: Cc1ccccc1N=Nc1ccc(NC(=O)c2ccnn2C)c(C)c1
viability, T/C (compound 1 µM): 99.6% [middle of 20 runs]

IC50 (compound alone, run of 06/06/2022): > 10 µM
SMILES: Cc1cncc(-c2nc(NCCc3c[nH]c4ccccc34)c3ncn(C(C)C)c3n2)c1
viability, T/C (compound 0.316 µM): 103% [middle of 20 runs]
viability, T/C (compound 10 µM): 83.6% [middle of 20 runs]

IC50 (curve of compound): > 10 µM
SMILES: NS(=O)(=O)OCC1CC(n2ccc3c(NC4CCc5ccccc54)ncnc32)CC1O (stereo unspecified)
viability, T/C (compound 0.0316 µM): 100% and 99.4% and 89%
viability, T/C (compound 0.1 µM): 109% and 118% and 98.8%
viability, T/C (compound 0.316 µM): 100% and 104% and 111%
viability, T/C (compound 1 µM): 90% and 108% and 103%
viability, T/C (compound 3.16 µM): 88% and 106% and 113%
viability, T/C (compound 10 µM): 73.4% and 86.2% and 81.5%

IC50 (curve of compound): 1.25 µM and 1.33 µM and 1.11 µM
SMILES: O=C(C=Cc1cccc(S(=O)(=O)Nc2ccccc2)c1)NO
viability, T/C (compound 0.0316 µM): 104% and 98.7% and 101%
viability, T/C (compound 0.1 µM): 105% and 99.7% and 84.2%
viability, T/C (compound 0.316 µM): 85.4% and 76.4% and 76.7%
viability, T/C (compound 1 µM): 54.8% and 58.9% and 56.1%
viability, T/C (compound 3.16 µM): 25.9% and 28.1% and 21.8%
viability, T/C (compound 10 µM): 3.85% and 5.28% and 4.17%
